Assays:
[1] = tested on: hematopoietic stem cells CD41:GFP accumulated in the AGM; assay: Zebrafish embryo test: HSC accumulated in the AGM (initiation of the metastatic process); type: in vivo; conditions: althiazide 10 μM (FIG. 2; b187 prints 10 μl), embryos 25 hpf treated 24 h, vs DMSO
Excerpt: A method for determining whether a molecule is capable of treating cancer in the pre-metastatic state has been described in international application WO 2011/007259. This method consists in isolating molecules capable of inhibiting the emergence of hematopoietic stem cells from the floor of the aorta without cell division, but by endothelial-to-hematopoietic transition. This emergence involves the loss of cell polarity of emerging cells, the loss of cellular junctions with these neighboring cells and the acquisition of migratory properties. This model is used because it mimics each stage of the epithelial-mesenchymal transition, the first stage of cancer metastasis. The endothelial-to-hematopoietic transition takes place in a region of the embryo called Aorta-Gonad-Mesonephros (AGM).
In order to evaluate the inhibition of the endothelial-to-hematopoietic transition, transgenic CD41:GFP (green fluorescent protein) embryos are used. HSCs express GFP under the control of the CD41 promoter, which allows them to be monitored in vivo under a fluorescence microscope. The read-out is the number of hematopoietic stem cells CD41:GFP accumulated in the AGM (mimicking the initiation of the metastatic process) and/or in the CHT of the zebrafish embryo (mimicking the progression of the metastatic process). […]

[2] = tested on: ZEB1; assay: q-RT-PCR expression of EMT markers in MDA-MB-231 cells under hypoxia: ZEB1; type: cell-based, human; conditions: althiazide 100 μM, hypoxic conditions (1% O2), vs control, FIG. 11
Protocol: The cell cultures are carried out on human breast cancer epithelial cell lines MDA-MB-231 (HTB-26™), resulting from metastases present in a pleural effusion of a patient with a mammary adenocarcinoma. This line is used as a triple negative cancer cell model (no expression of ER-type nuclear estrogen receptors, nuclear progesterone receptors or overexpression of the oncogene encoding HER2 protein (Human Epidermal Growth factor Receptor-2).
The cells were cultured in DMEM medium (Eurobio, Fance) supplemented with 10% fetal calf serum (FCS) (Eurobio, Fance) at 37° C., 5% CO2. The medium was changed every 3 days.
The cells were placed in a controlled atmosphere at 1% oxygen 24 hours before the application of the different treatments.
The expression of the mRNAs is measured by the q-RT-PCR method. The cells were seeded at the density of 500,000 cells/well in 6-well plates. After 24 hours at 37° C., 5% CO2 and 1% O2, the medium was renewed and added the various treatments. RNA was isolated using TRI Reagent® (sigma), assayed and retro-transcribed into complementary DNA using the PrimeScript RT Reagent Kit (Takara). The expression levels of the mRNA of the genes of interest were determined by quantitative PCR (LightCycler® 480 Instrument II) with the primers listed in Table 2: […]
The results are calculated using the Delta Delta Ct (Δ ΔCt) method.

[3] = tested on: MDA-MB-231 cells; assay: Migration test on MDA-MB-231 cells (scratch test); type: cell-based, human; conditions: 10, 50 and 100 μM, 18 h migration, FIG. 10
Protocol: Cell migration assays on the MDA-MB-231 cell line are performed in vitro in 96-well plates. The MDA-MB-231 cells were seeded at the density of 50000 cells per well, to form a monolayer. The cells are maintained in a DMEM culture medium supplemented with 0.2% fetal calf serum and incubated at 37° C., 5% CO2 and 1% O2 for 24 hours. The cell monolayer is injured with a pipette tip. The cells are then rinsed with PB S to remove the cells in suspension and the different treatments are added, as well as DMEM supplemented with 10% FCS. The cells are incubated for 18 hours at 37° C., 5% CO2 and 20% O2.
A first series of images of each well (center of the well) was carried out at the beginning of the experiment (t=0) and after 18 hours of migration (t=18) using a 4× objective Nikon microscope. The images were analyzed using ImageJ software (National Institutes of Health, USA).
The treatments were carried out in triplicate and the manipulation was carried out 3 times. […]
A first series of images of each well (center of the well) is performed at the beginning of the experiment (t=0) and after 18 h of migration (t=18) using a Nikon microscope −4× lens. The images were analyzed using Image J software (National Institute of Health, USA)

C=CCSCC1Nc2cc(Cl)c(S(N)(=O)=O)cc2S(=O)(=O)N1 (racemic) [althiazide]
number of HSC accumulated in the AGM compared with reference embryos; local migration of HSC [1]: greater
number of HSC accumulated in the AGM compared with reference embryos; local migration of HSC ([1]; listed as thiazide): reduction of the junction loss and the local migration of HSC
change in expression of ZEB1 [2]: −14%
decrease of the migration [3]: ~50%

From patent US20230137849A1, “USE OF A COMPOUND OF THE DIURETICS CLASS FOR TREATING CANCER” (AZELEAD, priority 2017, published 2023)
